Measurements reported in PMC6396024, “Artemin and an Artemin-Derived Peptide, Artefin, Induce Neuronal Survival, and Differentiation Through Ret and NCAM” (Frontiers in Molecular Neuroscience, 2019).
Values belong to the molecule of their own block, whether it stands above or below them. Bridge positions count the residues as written; N and C are the ends. Ends that are not written are not given here. I, II: the chains in the order shown.

Legend:
GFRα2 [1] = test: SPR binding to immobilized GFRα2/Fc; settings: artefin 15.6 μM
[2] = test system: RET; cerebellar granule neurons (CGNs); test: Neurite outgrowth in CGNs with anti-RET antibody; format: cell-based, Wistar rat; settings: for neurite outgrowth without antibody: ARTN 0.042 nM or artefin 0.47 μM, versus control; for neurite outgrowth with anti-RET antibody / neurite outgrowth with control IgG: 1 h before ARTN 0.042 nM or artefin 0.47 μM; for neurite outgrowth with control IgG: control IgG 4.1 μg/ml
Description: (§1) Cerebellar granule neurons (CGNs) were prepared from 7-day-old Wistar rat pups (Charles River Laboratories, Sulzfeld, Germany) as previously described ([Schousboe et al., 1989]). Briefly, pups were decapitated, and the cerebellum was removed and cleared from blood vessels and meninges in ice-cold modified Krebs-Ringer buffer. The cerebellum was dissociated by chopping and trypsinization. Cells were washed in Krebs-Ringer buffer containing DNAse I (Sigma, St. Louis, MO, United States) and soybean trypsin inhibitor (Sigma) to stop trypsinization, and the remaining tissue pieces were pelleted by centrifugation. Cells were then washed in Krebs-Ringer buffer containing Ca^2+ and Mg^2+ and re-suspended in appropriate Neurobasal^TM medium (Invitrogen, Taastrup, Denmark) with supplements depending on the experiment.
(§2) Cerebellar granule neurons CGNs were re-suspended in Neurobasal^TM medium supplemented with 2% (v/v) B27, 0.5% (v/v) glutamax, 100 U/ml penicillin, 100 μg/ml streptomycin, 0.4% (w/v) BSA, and 20 mM HEPES and were seeded in 8-well LabTek Permanox chamber slides (Nunc) at a density of 1 × 10^4 cells/cm^2. Various concentrations of ARTN, artefin, scrambled artefin, or reversed artefin were added to neurons immediately after seeding. For the RET inhibition assay, the inhibitory goat anti-mouse RET antibody (4.1 μg/ml; R&D systems, Abingdon, United Kingdom) or control goat IgG (4.1 μg/ml; Santa Cruz Biotechnology, Dallas, TX, United States) were added to neurons 1 h before stimulation with ARTN (0.042 nM) […]. For the competition assay between growth factor and mimetic peptide, a combination of ARTN (2.1 nM) and artefin (4.2 μM) was added to the cells immediately after seeding. To inhibit Fibroblast growth factor receptor (FGFR) pharmacologically, inhibitor of FGFR, SU5402 (Sigma), was added to the growth medium in serial dilutions of 20, 40, and 80 μM immediately after plating of CGNs, followed by addition of either P2-d (8 μg/ml), ARTN (0.21 nM), or artefin (1.4 μM) 1 h after the plating.
(§3) To estimate neurite outgrowth, neurons were fixated 24 h after stimulation and stained with rabbit anti-growth-associated-protein-43 (GAP-43) antibody (Chemicon International, Inc., Temecula, CA, United States) or anti-GFP antibody (for transfection experiment) overnight at 4°C followed by incubation with secondary Alexa-conjugated goat anti-rabbit antibodies (Invitrogen, Taastrup, Denmark). In case of experiments with plasmid transfection, the transfection efficiency was ca. 20% of total cells and the neurite outgrowth was evaluated only in GFP-positive, i.e., transfected, cells. For representative pictures, cells were additionally co-stained with Hoechst 33258.
(§4) Computer-assisted fluorescent microscopy was performed using a Nikon Diaphot 300 inverted microscope (Nikon) equipped with a Nikon Plan 20× objective and coupled to a video camera (Grundig Electronics, Germany). For each condition in each experiment, including the experiment with transfections, images of approximately 200 cells were recorded in systematic series of fields of view, and neurite outgrowth was quantified using a stereological approach as previously described ([Rønn et al., 2000]).
FIGURE 6 Inhibition of ARTN-induced (A) and artefin-induced (B) neurite outgrowth in CGNs by anti-RET antibody. CGNs were pre-treated directly after plating for 1 h with anti-RET antibody or control IgG in concentrations 4.1 μg/ml before stimulating with ARTN (0.042 nM) or artefin (0.47 μM).

[3] = test system: FGFR; cerebellar granule neurons (CGNs); test: Neurite outgrowth in CGNs with FGFR-inhibitor SU5402; format: cell-based, Wistar rat; settings: SU5402 20, 40, 80 μM; ARTN 0.21 nM or artefin 1.4 μM; p < 0.01
Description: as §1
as §2, with “To inhibit Fibroblast growth factor receptor (FGFR) pharmacologically, inhibitor of FGFR, SU5402 (Sigma), was added to the growth medium in serial dilutions of 20, 40, and 80 μM immediately after plating of CGNs, followed by addition of either P2-d (8 μg/ml), ARTN (0.21 nM), or artefin (1.4 μM) 1 h after the plating.” left out
as §3, with “For representative pictures, cells were additionally co-stained with Hoechst 33258.” left out
as §4, with “2000]). […]” for “2000]).”

[4] = Circular dichroism spectroscopy; format: physicochemical; settings: 10 μM, 10 mM NaH2PO4 pH 7.0, room temperature, tetrameric peptide
Description: Circular dichroism (CD) spectra were measured over the range 190–250 nm using a Jasco J-810 spectropolarimeter in cells with path length 1 mm at room temperature. The peptide was dissolved in 10 mM NaH2PO4 buffer, pH 7.0, to the final concentration 10 μM. Data were recorded at a scan speed of 20 nm/min with 10 repeat scans accumulated to obtain the final average spectra. Following the buffer subtraction, the observed ellipticity θ (mdeg) was converted to mean residue ellipticity [θ] (deg cm^2/dmol) using the following relationship [θ] = 100θ /(lcn) where ‘l’ is path length in centimeters, ‘c’ is the millimolar concentration, and ‘n’ is the number of residues in the peptide.

GFRα1 = test system: GFRα1; parameters: method as in Scott and Ibañéz, 2001; settings: previously shown; ref Scott and Ibañéz, 2001; cited from earlier work
GFRα2 [5] = test system: GFRα2; parameters: method as in Scott and Ibañéz, 2001; settings: previously shown; ref Scott and Ibañéz, 2001; cited from earlier work
dopaminergic neurons = settings: in vitro; ref Rosenblad et al., 2000; Sariola and Saarma, 2003; cited from earlier work
Excerpt: (§5) Artemin (ARTN) is a member of the glial cell line-derived neurotrophic factor family ligands (GFLs) which includes three other members: glial cell line-derived neurotrophic factor (GDNF), neurturin (NRTN), and persephin (PSPN) ([Baloh et al., 1998b]; [Airaksinen and Saarma, 2002]). GFLs affect the generation, survival, and growth of neurons in different CNS neuronal populations, including midbrain dopaminergic neurons, central motor neurons, and noradrenergic neurons ([Airaksinen and Saarma, 2002]). Similar to GDNF, ARTN is a potential neuroprotective agent as it promotes the survival of dopam ...

mice = settings: intracerebroventricular, ref Mannelli et al., 2011; cited from earlier work
Excerpt: as §5

- binding to GFRα2 (GFRα2 [1]): binds to GFRα1 and GFRα2
- secondary structure in solution (far-UV CD) [4]: a-helix confirmation is dominant
Molecule: I: RSPHDLSLASLLGAGKK-NH2 / II: RSPHDLSLASLLGAGK / III: RSPHDLSLASLLGAG / IV: RSPHDLSLASLLGAG (amide I:16-IV:C, I:17-II:C, II:16-III:C; C-terminus assumed) [artefin]
- neurite outgrowth without antibody [2]: significantly increased when compared to the control (p < 0.01)
- neurite outgrowth with anti-RET antibody ([2]; anti-RET antibody 4.1 μg/ml): statistically significant reduction of artefin-induced neurite outgrowth (p < 0.01 versus artefin alone)
- neurite outgrowth with anti-RET antibody versus unstimulated control ([2]; anti-RET antibody 4.1 μg/ml, artefin 0.47 μM, p < 0.01): still significantly different from unstimulated control
- neurite outgrowth with control IgG [2]: did not significantly alter the neuritogenic effect of artefin
- neurite outgrowth effect in the presence of SU5402 [3]: dose-dependently inhibited the neurite outgrowth effect of artefin
- far-UV CD bands ([4]; 190–250 nm): negative band at 208 nm, a shoulder at 222 nm, and a positive band at 193 nm

B1: recombinant human Artemin (ARTN) (ligand, UniProt Q5T4W7 108-220, looked up)
chain: AGGPGSRARAAGARGCRLRSQLVPVRALGLGHRSDELVRFRFCSGSCRRARSPHDLSLASLLGAGALRPPPGSRPVSQPCCRPTRYEAVSFMDVNSTWRTVDRLSATACGCLG
notes: Artemin (ARTN), human, UniProt D3DPX9; source: bought: R&D Systems
- neurite outgrowth without antibody [2]: significantly higher level of neurite outgrowth than control cultures
- neurite outgrowth with anti-RET antibody ([2]; anti-RET antibody 4.1 μg/ml): completely abolished the neurite elongation effect of ARTN
- neurite outgrowth with control IgG [2]: did not affect the ARTN-induced neurite outgrowth
- neurite outgrowth effect in the presence of SU5402 [3]: completely abolished in the presence of serially diluted inhibitor
- interaction with GFRα1 (GFRα1): previously been shown to interact with GFRα1
- interaction with GFRα2 (GFRα2 [5]): previously been shown to interact with GFRα1and GFRα2
- survival of dopaminergic neurons (dopaminergic neurons): promotes the survival of dopaminergic neurons in vitro
- antidepressant effects (mice): dose-dependent antidepressant effects
